Here are results for one sequence from PMC5048182, “Structure and specificity of the Type VI secretion system ClpV-TssC interaction in enteroaggregative Escherichia coli” (Scientific Reports, 2016).

“Also recorded” adds a separate entry of the source.

The test system of this experiment is ClpV1-Nt (ClpV1 N-terminal domain). As to the kind of experiment: Microscale thermophoresis (MST), binding of TssC N-terminal peptides to ClpV1-Nt. On the set-up: species or system enteroaggregative Escherichia coli. The note with it: 200 nM labeled ClpV1-Nt vs up to 500 μM peptide, 25 mM Tris-HCl pH 7.5, 200 mM NaCl, glycerol 5%, 0.05% Tween-20, triplicate. The method, then: E. coli BL21 (DE3) pLysS cells carrying the pETG20A-ClpV1-Nt plasmid were grown at 37 °C in TB medium (1.2% peptone, 2.4% yeast extract, 72 mM K2HPO4, 17 mM KH2PO4, and 0.4% glycerol). Expression of clpV1-Nt was induced at A600 = 0.6 with 0.5 mM IPTG for 18 hours at 25 °C. Cells were then resuspended in lysis buffer (50 mM Tris-HCl pH 8.0, 300 mM NaCl, 1 mM EDTA, 0.5 mg/mL lysozyme, 1mM phenylmethylsulfonyl fluoride), submitted to several freeze-thawing cycles and sonicated after the addition of 20 μg/mL DNase and 20 mM MgCl2. Pellet and soluble fraction were separated by centrifugation for 30 min at 16,000 × g. The soluble fraction containing ClpV1-Nt was loaded onto a 5-mL Ni^2+ affinity column (HisTrap™ FF) using an ÄKTA Explorer apparatus (GE healthcare) and the immobilized proteins were eluted in 50 mM Tris-HCl pH8.0, 300 mM NaCl supplemented with 250 mM imidazole. The protein solution was desalted on a HiPrep 26/10 column (Sephadex^TM G-25, Amersham Biosciences), and ClpV1-Nt was obtained by cleavage using 2 mg of TEV protease for 18 hours at 4 °C and collected in the flow-through of a 5-mL Nickel column. The protein was concentrated using the centricon technology (Millipore, 10-kDa cut-off). […]
Microscale thermophoresis experiments were performed using a Monolith NT.115 apparatus (NanoTemper). […] Each data point was measured in triplicate. […]

On to “ATDDCLEEIINNTRA [TssC2 peptide, TssC2 (residues 15–29), […], synthesized by Genscript]”, for which the “binding to ClpV1-Nt (in words)” value is recorded as “no binding; also recorded: no interaction”.
